Experimental data as given in ChEMBL document CHEMBL1150567, “Three new phenolic compounds from a manipulated plant cell culture, Mirabilis jalapa” (J Nat Prod, 2001).
Values after ≈ are worked out from the molar mass of the structure shown.

Key:
Candida albicans [1] = test: Antifungal activity against MDR knockout Candida albicans DSY1024 after 24 hrs by XTT assay; assay type: functional, organism-based; details: DSY1024, 24 h
Candida albicans [2] = test: Antifungal activity against wild type Candida albicans SC5314 after 24 hrs by XTT assay; assay type: functional, organism-based; details: SC5314, 24 h

O=c1c(-c2ccc(O)cc2)coc2cc(O)ccc12 [DAIDZEIN]
IC50 (Candida albicans [1]): > 100 µg/mL
IC50 (Candida albicans [2]): > 100 µg/mL

COc1cc2c(c(O)c1C)C(=O)[C@@]1(O)c3cccc(O)c3O[C@@H](OC)[C@@H]1O2
IC50 (Candida albicans [1]): > 200 µg/mL
IC50 (Candida albicans [2]): > 200 µg/mL

OC(Cn1cncn1)(Cn1cncn1)c1ccc(F)cc1F [FLUCONAZOLE]
IC50 (Candida albicans [1]): 6.7 µg/mL (≈ 21.9 µM)
IC50 (Candida albicans [2]): 0.18 µg/mL (≈ 0.588 µM)

C[C@@H]1[C@H](O)[C@@H](C)/C=C/C=C/C=C/C=C/C=C/C=C/C=C/[C@H](O[C@@H]2O[C@H](C)[C@@H](O)[C@H](N)[C@@H]2O)C[C@@H]2O[C@](O)(C[C@@H](O)C[C@@H](O)[C@H](O)CC[C@@H](O)C[C@@H](O)CC(=O)O[C@H]1C)C[C@H](O)[C@H]2C(=O)O [AMPHOTERICIN B]
IC50 (Candida albicans [1]): 0.19 µg/mL (≈ 0.206 µM)
IC50 (Candida albicans [2]): 0.15 µg/mL (≈ 0.162 µM)

COc1ccc(-c2coc3cc(O)cc(O)c3c2=O)cc1 [BIOCHANIN]
IC50 (Candida albicans [1]): > 100 µg/mL
IC50 (Candida albicans [2]): > 100 µg/mL

O=c1c(-c2ccc(O)cc2)coc2cc(O)cc(O)c12 [GENISTEIN]
IC50 (Candida albicans [1]): > 100 µg/mL
IC50 (Candida albicans [2]): > 100 µg/mL

COc1cc2oc3c(c(=O)c2c(O)c1C)-c1cccc(O)c1OC3O (stereo unspecified) [9-O-METHYL-4-HYDROXYBOERAVINONE B]
IC50 (Candida albicans [1]): 48 µg/mL (≈ 140 µM)
IC50 (Candida albicans [2]): > 200 µg/mL

COc1ccccc1-c1coc2cc(O)c(C)c(O)c2c1=O
IC50 (Candida albicans [1]): 25 µg/mL (≈ 83.8 µM)
IC50 (Candida albicans [2]): 16 µg/mL (≈ 53.6 µM)
